Experimental data taken from patent publication US9623031B2, “Compositions, methods and kits for treating cancer” (priority 2011, dated 2017).
Entries after “also recorded” stand apart in the source; their conditions may differ.

What was measured:
[1] = test system: BCR-ABL^+LSC (Kit^+Sca1^+Lin^−GFP^+); experiment: Apoptosis of BCR-ABL+ LSCs treated ex vivo (annexin V, flow cytometry); type: cell-based, mouse
Procedure: Apoptosis. Apoptosis of LSCs was performed using annexin V as described below in Supplementary Information and Methods.
Apoptosis. The LSCs were diluted in DMEM, resuspended using a 16-gauge needle, and collected by centrifugation. 1×10^5 cells were resuspended in 200 μl of binding buffer (0.1 M HEPES with 1.4 M NaCl, 25 mM CaCl2, pH 7.4). Annexin V FITC (BD Biosciences) was incubated with cells for 15 min on ice followed by flow cytometric analysis.
The ability of CyPGs derived from arachidonic acid (2 series PGs) to induce apoptosis was tested in cultures of LSCs from FV infected mice and in the murine CML model. […] 15d-PGJ2 is known as a PPAPγ agonist. […] In FIG. 7C Δ^12-PGJ3, 15d-PGJ2 or 9,10-dihydro-15d-PGJ2 are tested for their ability to induce apoptosis in a murine CML model. […] The cells were stained with annexin V-FITC and analyzed by flow cytometry. Representative of N=4. […] Inset: Effect of rosiglitazone on the apoptosis of LSC. Rosiglitazone (0.1-2.0 μM) was incubated with LSC in the culture media for 36 h as described earlier and the cells were subjected to annexin-V staining followed by flow cytometry. […] LSC were treated ex vivo with indicated concentrations of each compound for 36 h.
Following 36 h of incubation, apoptotic cells were quantified by annexin V staining. […] In a related study to address if Δ^12-PGJ3 treatment would cause any degranulation of granulocytes, a rat basophilic cell line ([…]) was treated with 100 nM Δ^12-PGJ3 and the degranulation was followed by quantitating the release of histamine and a second marker of degranulation, hexoseaminidase.
In this experiment, 500,000 BCR-ABL+ LSCs were plated in a 24-well plate followed and were treated with 25 nM PGD2Me or 100 nM ZK118182 (both are agonists of DP) for 24 h. GFP^+ cells were analyzed by flow cytometry. These agonists were purchased from Cayman Chemicals, MI.

[2] = test system: Human unfractionated bone marrow cells
Procedure: Human unfractionated bone marrow cells (5×10^5 per well) were plated in methylcellulose complete media containing IL-3, GM-CSF, G-CSF, SCF and Epo supplemented with the indicated concentrations of drugs. Total colonies were counted after 12 days.

[3] = test system: MSCV-GFP^+ HSC transplanted mice (steady state hematopoiesis); experiment: Control mice transplanted with MSCV-GFP+ HSCs, treated; settings: mouse, in vivo
Procedure: Induction of CML using MIGR-BCR-ABL retrovirus: MIGR-BCR-ABL and control MSCV-GFP retroviruses were obtained. […] C57BL/6 mice were treated with 5-fluorouracil (5-FU; 150 mg/Kg, Sigma, St. Louis, Mo.) to enrich for cycling HSCs. On day four after treatment bone marrow cells were harvested and infected with MIGR-BCR-ABL or MSCV-GFP control virus overnight in IMDM media containing 5% FCS and supplemented with 2.5 ng/ml IL-3 and 15 ng/ml SCF (R&D Systems Minneapolis, Minn.). 0.5×10^6 transduced cells were transplanted by retro-orbital injection into C57BL/6 recipient mice that were preconditioned with 950 Rads of irradiation. In order to increase the number of CML and control mice, 17 days after transplant GFP^+ spleen cells were isolated by FACS and 1×10^5 GFP^+ cells were transplanted into irradiated (950 Rads) secondary C57BL/6 recipients. Two weeks after transplant, mice were treated as indicated with CyPGs and vehicle control. For ex-vivo experiments, Kit^+Sca1^+Lin^−GFP^+ cells were isolated from the bone marrow or spleen of transplanted mice by FACS. The sorted cells were cultured in Methocult media M3334 (Stem Cell Technologies Vancouver BC) M3334 supplemented with Shh, SCF, and BMP4 and treated with the indicated CyPGs and vehicle controls for indicated time periods. […] The hematopoietic colonies (colony forming cells in culture, CFC) were scored. […]

[4] = test system: imatinib-resistant BCR-ABL(GFP)+ cells; experiment: Imatinib-resistant BCR-ABL(GFP)+ LSCs treated ex vivo; type: cell-based, mouse; settings: splenocytes after imatinib i.p. 1 wk and 1 week washout; 25 nM, 24 h
Procedure: FIG. 8 is a graph showing that imatinib-resistant BCR-ABL(GFP)+ cells are targeted by Δ^12-PGJ3. […] The mice were followed for the development of leukemia. Mice that developed leukemia were euthanized and spleens were used as the source of LSCs.
GFP+ LSCs were analyzed by flow cytometry.

[5] = test system: normal HSCs (MSCV-GFP^+HSC); experiment: Effect on normal HSCs (MSCV-GFP+ HSC) treated ex vivo
[6] = test system: BCR-ABL^+LSC transplanted mice; experiment: Murine CML model: mice transplanted with BCR-ABL+ LSCs; type: in vivo, mouse
Procedure: Induction of CML using MIGR-BCR-ABL retrovirus: MIGR-BCR-ABL and control MSCV-GFP retroviruses were obtained. […] C57BL/6 mice were treated with 5-fluorouracil (5-FU; 150 mg/Kg, Sigma, St. Louis, Mo.) to enrich for cycling HSCs. On day four after treatment bone marrow cells were harvested and infected with MIGR-BCR-ABL or MSCV-GFP control virus overnight in IMDM media containing 5% FCS and supplemented with 2.5 ng/ml IL-3 and 15 ng/ml SCF (R&D Systems Minneapolis, Minn.). 0.5×10^6 transduced cells were transplanted by retro-orbital injection into C57BL/6 recipient mice that were preconditioned with 950 Rads of irradiation. In order to increase the number of CML and control mice, 17 days after transplant GFP^+ spleen cells were isolated by FACS and 1×10^5 GFP^+ cells were transplanted into irradiated (950 Rads) secondary C57BL/6 recipients. Two weeks after transplant, mice were treated as indicated with CyPGs and vehicle control. For ex-vivo experiments, Kit^+Sca1^+Lin^−GFP^+ cells were isolated from the bone marrow or spleen of transplanted mice by FACS. The sorted cells were cultured in Methocult media M3334 (Stem Cell Technologies Vancouver BC) M3334 supplemented with Shh, SCF, and BMP4 and treated with the indicated CyPGs and vehicle controls for indicated time periods. […] The hematopoietic colonies (colony forming cells in culture, CFC) were scored.
Treatment of Mice with PGs: Mice with FV-induced erythroleukemia or MIGR-BCR-ABL induced CML were treated on the indicated days with CyPGs. Mice were treated with a daily intraperitoneal injection of Δ^12-PGJ3 (0.01-0.1 mg/kg), 15d-PGJ2 (0.1 mg/kg), or 9,10-dihydro-15d-PGJ2 (0.1 mg/kg) for 7 days. All three compounds were formulated with hydroxypropyl-β-cyclodextrin (30% w/v; Sigma; vehicle control).

[7] = test system: murine erythroleukemia (MEL) cells; experiment: MEL cell apoptosis and viability (MTT, CCK-8); type: cell-based, mouse
Procedure: Cell culture. Murine erythroleukemia (MEL) cells were cultured in DMEM with 10% FBS. In order to examine the production 3-series PGs, BALB/c-derived RAW264.7 macrophage-like cells (ATCC) were cultured in DMEM containing 5% FBS, 250 nM sodium selenite, and 50 μM EPA (as BSA conjugate) for 72 h followed by stimulation with E. coli endotoxin lipopolysaccharide (LPS; Serotype 0111B4; 50 ng/ml) for 30 min. The cells were cultured in fresh DMEM for an additional 24-144 h. Cells cultured with cell culture-grade fatty acid free BSA (Sigma Aldrich) served as a control. Culture media was withdrawn at various times and analyzed for 3-series PGs as described below. Total RNA was isolated from cells or tissues using Trizol reagent as per the instructions of the supplier (Invitrogen, Carlsbad, Calif.) and cDNA was prepared using a High Capacity cDNA Reverse Transcriptase kit (Applied Biosystems, Foster City, Calif.). Semiquantitative RT-PCR for p53 and β-actin was performed with primers as described in Supplementary Methods. Nuclear and cytoplasmic protein extracts of LSCs were prepared using standard methods previously described (Vunta H et al., J Biol Chem. 2007; 282:17964-17973).
Cell viability studies. MEL cells were cultured in DMEM containing 10% FBS and treated with various commonly used anti-leukemic drugs such as daunorubicin (DNR), mitoxantrone (MIT), and cytarabine (CYT) at a final concentration […] for 24 h. […] After 24 h of drug treatment, cell proliferation was measured by MTT assay with CCK-8 kit from Dojindo Molecular Technologies, Inc. (Gaithersburg, Md.). All viability values reported are relative to untreated cells (UT) that was designated to be 100%. Results represent the mean±SEM of three independent observations.
In order to address whether MEL cells are resistant in general to chemotherapy agents, we tested whether MEL cells can be killed by apoptosis when treated with standard anti-leukemia drugs. Treatment with various commonly used anti-leukemic drugs such as daunorubicin (DNR), mitoxantrone (MIT), and cytarabine (CYT) at a final concentration 1 μM for 24 h. […] After 24 h of drug treatment, cell proliferation was measured by MTT assay with CCK-8 kit from Dojindo Molecular Technologies, Inc. (Gaithersburg, Md.). […] The results represent the mean±SEM of three independent observations.

CC/C=C\C[C@H](O)C/C=C1/C(=O)C=C[C@@H]1C/C=C\CCCC(=O)O [Δ^12-PGJ3, Δ^12-prostaglandin J3]
apoptosis of BCR-ABL+LSCs ([1]; 25 nM, annexin V, caspase 3 and caspase 8 activation): significant increase in apoptosis; also recorded: highly susceptible to apoptosis | apoptosis of Sca1+GFP+Kit+ BCR-ABL+LSC from spleen ([1]; 25-1000 nM, 36 h): significantly increased their apoptosis | IC50 ([1]; Kit+Sca1+Lin−GFP+ LSCs from spleen of BCR-ABL mice, ex vivo 36 h, annexin V): ~12 nM | total colonies of human bone marrow cells [2]: had no effect | WBC counts, other hematological parameters, survival [3]: had no effect on WBC counts or other hematological parameters or survival | targeting of imatinib-resistant GFP+ LSCs [4]: can even target LSCs that are resistant to imatinib treatment | effect on normal HSCs ([5]; Kit+Sca1+Lin−GFP+ cells from MSCV-control mice, ex vivo 36 h): no adverse effects on HSCs or downstream progenitors; also recorded: did not affect the normal HSCs | viability of MSCV-HSC control cells ([5]; antagonists/inhibitor 10 nM, Δ^12-PGJ3 25 nM, 36 h): not affected | splenomegaly ([6]; 0.05 mg/kg for 1 week): completely alleviated splenomegaly | Kit+Sca1+GFP+ LSCs in the spleen ([6]; 1 week treatment): decreased | Kit+Sca1+Lin−GFP+ LSCs in the bone marrow ([6]; 1 week treatment): eradicated | leukocyte counts in peripheral blood ([6]; 1 week treatment): significantly decreased the leukocyte counts | survival and relapse, comparison with imatinib ([6]; Imatinib 75 mg/kg, Δ^12-PGJ3 0.025 mg/kg, 1 week): prolonged survival, but no relapse of leukemia | relapse after last dose ([6]; intraperitoneal, five weeks post last dose): no relapse | survival ([6]; vehicle mice died two weeks after transplantation): rescued all of the mice | apoptosis of MEL cells (lack functional p53) [7]: cannot induce apoptosis; also recorded: failed to initiate apoptosis
